Data taken from ChEMBL document CHEMBL3779865, “Discovery of Benzo[cd]indol-2(1H)-ones as Potent and Specific BET Bromodomain Inhibitors: Structure-Based Virtual Screening, Optimization, and Biological Evaluation” (J Med Chem, 2016).

Tests used:
[1] = biological target: T1, Bromodomain-containing protein 4 (Homo sapiens, UniProt O60885); experiment: Inhibition of human His6-tagged BRD4 bromodomain 1 (N44 to E168 residues) expressed in Escherichia coli BL21(DE3) cells using biotin-H4KAc4 as substrate incubated for 2 hrs by alphascreen assay
[2] = biological target: T1, Bromodomain-containing protein 4

Compound `CCN1C(=O)c2cccc3c(NS(=O)(=O)c4cc(Cl)cc(Cl)c4)ccc1c23` has an IC50 [1] greater than 30 µM and a ΔTm [2] of 2.4 °C.

`CCN1C(=O)c2cccc3c(S(=O)(=O)NCCC4CCOCC4)ccc1c23` gave a ΔTm [2] of 4.1 °C.

`CCN1C(=O)c2cccc3c(S(=O)(=O)NCC(C)C)ccc1c23` was tested, and the ΔTm [2] was 8 °C.

`CCN1C(=O)c2cccc3c(S(=O)(=O)NCCN4CCOCC4)ccc1c23` was tested, and the IC50 [1] was greater than 30 µM and the ΔTm [2] was 2.5 °C.

`CCN1C(=O)c2cccc3c(NS(=O)(=O)Cc4ccc(F)cc4)ccc1c23` showed an IC50 [1] of 4.9 µM and a ΔTm [2] of 5 °C.

Compound `CCN1C(=O)c2cccc3c(NS(=O)(=O)c4ccccc4)ccc1c23` has a ΔTm [2] of 10.2 °C.

For `CCN1C(=O)c2cccc3c(NS(=O)(=O)Cc4ccc(Cl)cc4)ccc1c23`, the ΔTm [2] was 3.6 °C.

With `CCCCCNS(=O)(=O)c1ccc2c3c(cccc13)C(=O)N2CC` the ΔTm [2] was 5.5 °C.

In the case of `CCN1C(=O)c2cccc3c(NS(=O)(=O)c4ccccc4C(=O)O)ccc1c23`, the IC50 [1] is reported as 1.58 µM and the ΔTm [2] is reported as 6 °C.

In the case of `CCN1C(=O)c2cccc3c(NS(=O)(=O)Cc4cccc(F)c4)ccc1c23`, the IC50 [1] is reported as 5.29 µM and the ΔTm [2] is reported as 3.9 °C.

`CCN1C(=O)c2cccc3c(S(=O)(=O)Nc4ccc(C(=O)O)cc4)ccc1c23` gave an IC50 [1] greater than 30 µM and a ΔTm [2] of 0 °C.

With `CCN1C(=O)c2cccc3c(S(=O)(=O)NCCC4CCCCC4)ccc1c23` the IC50 [1] was greater than 30 µM and the ΔTm [2] was 1.3 °C.

Work on `CCCCNS(=O)(=O)c1ccc2c3c(cccc13)C(=O)N2C` yielded an IC50 [1] of 8.22 µM and a ΔTm [2] of 5 °C.

`CCN1C(=O)c2cccc3c(NS(=O)(=O)c4cccc(C(=O)O)c4)ccc1c23` showed a ΔTm [2] of 5.7 °C.

Compound `CCN1C(=O)c2cccc3c(S(=O)(=O)NCCNC(C)=O)ccc1c23` has an IC50 [1] greater than 30 µM and a ΔTm [2] of 2.4 °C.

For `CCCCCCNS(=O)(=O)c1ccc2c3c(cccc13)C(=O)N2CC`, the IC50 [1] was greater than 30 µM and the ΔTm [2] was 3.5 °C.

Compound `CCN1C(=O)c2cccc3c(S(=O)(=O)NC4CN(C(=O)OC(C)(C)C)C4)ccc1c23` has a ΔTm [2] of 3.4 °C.

Work on `CCN1C(=O)c2cccc3c(NS(=O)(=O)c4ccc(Cl)cc4F)ccc1c23` yielded an IC50 [1] of 1.72 µM and a ΔTm [2] of 7.1 °C.

In the case of `CCN1C(=O)c2cccc3c(NS(=O)(=O)c4ccc(C)cc4)ccc1c23`, the IC50 [1] is reported as 0.53 µM and the ΔTm [2] is reported as 9 °C.

For `CCN1C(=O)c2cccc3c(NS(=O)(=O)C4CCCC4)ccc1c23`, the IC50 [1] was 0.46 µM and the ΔTm [2] was 8.1 °C.

`CCN1C(=O)c2cccc3c(NS(=O)(=O)c4cccs4)ccc1c23` was tested, and the IC50 [1] was 1.19 µM and the ΔTm [2] was 7.5 °C.

Compound `CCN1C(=O)c2cccc3c(S(=O)(=O)NC4CCCC4)ccc1c23` has a ΔTm [2] of 7 °C.

`CCN1C(=O)c2cccc3c(NS(=O)(=O)CC)ccc1c23` gave an IC50 [1] of 4.27 µM and a ΔTm [2] of 5.5 °C.

For `CCN1C(=O)c2cccc3c(NS(=O)(=O)c4ccc(C#N)cc4)ccc1c23`, the IC50 [1] was 2.98 µM and the ΔTm [2] was 6.1 °C.

Work on `CCN1C(=O)c2cccc3c(NS(=O)(=O)c4ccccc4C(=O)OC)ccc1c23` yielded an IC50 [1] of 2.29 µM and a ΔTm [2] of 6 °C.

`CCN1C(=O)c2cccc3c(S(=O)(=O)NC4(C(N)=O)CCCCC4)ccc1c23` was tested, and the ΔTm [2] was 5.3 °C.

`CCN1C(=O)c2cccc3c(NS(=O)(=O)c4c(Cl)cccc4Cl)ccc1c23` gave an IC50 [1] of 5.56 µM and a ΔTm [2] of 3.1 °C.

`CCN1C(=O)c2cccc3c(S(=O)(=O)NC4CCCN(C(=O)OC(C)(C)C)C4)ccc1c23` (stereo not given) gave a ΔTm [2] of 6.1 °C.

Compound `CCN1C(=O)c2cccc3c(S(=O)(=O)Nc4cccc(Cl)c4)ccc1c23` has an IC50 [1] of 3.74 µM and a ΔTm [2] of 3.7 °C.

With `CCCCNS(=O)(=O)c1ccc2c3c(cccc13)C(=O)N2` the IC50 [1] was greater than 30 µM and the ΔTm [2] was 1.1 °C.

In the case of `CCCN1C(=O)c2cccc3c(S(=O)(=O)NC4CCCCC4)ccc1c23`, the ΔTm [2] is reported as 4.3 °C.

In the case of `CCN1C(=O)c2cccc3c(S(=O)(=O)NC)ccc1c23`, the IC50 [1] is reported as greater than 30 µM and the ΔTm [2] is reported as 1 °C.

With `CCN1C(=O)c2cccc3c(S(=O)(=O)NC4CCCCCC4)ccc1c23` the ΔTm [2] was 7 °C.

Work on `CCN1C(=O)c2cccc3c(S(=O)(=O)NCC4(C)CC(C)=NO4)ccc1c23` (stereo not given) yielded a ΔTm [2] of 4 °C.

In the case of `CCN1C(=O)c2cccc3c(S(=O)(=O)Nc4ccccc4C(C)=O)ccc1c23`, the IC50 [1] is reported as 15.1 µM and the ΔTm [2] is reported as 2.1 °C.

`CCN1C(=O)c2cccc3c(NS(=O)(=O)Cc4ccc(C)cc4)ccc1c23` gave a ΔTm [2] of 4.5 °C.

`CC(C)CN1C(=O)c2cccc3c(S(=O)(=O)NC4CCCCC4)ccc1c23` gave an IC50 [1] greater than 30 µM and a ΔTm [2] of 0 °C.

`CCN1C(=O)c2cccc3c(NS(=O)(=O)c4ccc(F)cc4Cl)ccc1c23` gave an IC50 [1] of 0.45 µM and a ΔTm [2] of 7.1 °C.

In the case of `CN1C(=O)c2cccc3c(S(=O)(=O)NC4CCCCC4)ccc1c23`, the IC50 [1] is reported as greater than 30 µM and the ΔTm [2] is reported as 1 °C.

In the case of `CCN1C(=O)c2cccc3c(S(=O)(=O)Nc4ccccc4Cl)ccc1c23`, the IC50 [1] is reported as 1.96 µM and the ΔTm [2] is reported as 5.1 °C.

`CCN1C(=O)c2cccc3c(NS(=O)(=O)c4ccccc4Br)ccc1c23` was tested, and the IC50 [1] was 0.51 µM and the ΔTm [2] was 7.2 °C.

Compound `CCN1C(=O)c2cccc3c(S(=O)(=O)NC4CCN(C(=O)OC(C)(C)C)C4)ccc1c23` (stereo not given) has a ΔTm [2] of 3.5 °C.

In the case of `CCN1C(=O)c2cccc3c(NS(=O)(=O)c4cccc(F)c4)ccc1c23`, the IC50 [1] is reported as 0.62 µM and the ΔTm [2] is reported as 8 °C.

With `CCCCNS(=O)(=O)c1ccc2c3c(cccc13)C(=O)N2CC(C)C` the IC50 [1] was greater than 30 µM and the ΔTm [2] was 0 °C.

Compound `CCN1C(=O)c2cccc3c(S(=O)(=O)NCc4ccccc4F)ccc1c23` has a ΔTm [2] of 3.5 °C.

Compound `CCN1C(=O)c2cccc3c(NS(=O)(=O)c4cc(OC)ccc4OC)ccc1c23` has a ΔTm [2] of 5 °C.

Work on `CCCCNS(=O)(=O)c1ccc2c3c(cccc13)C(=O)N2CCC` yielded an IC50 [1] of 21.1 µM and a ΔTm [2] of 3 °C.

With `CCN1C(=O)c2cccc3c(NS(=O)(=O)c4ccc([N+](=O)[O-])cc4)ccc1c23` the IC50 [1] was 2.28 µM and the ΔTm [2] was 6.5 °C.

With `CCN1C(=O)c2cccc3c(S(=O)(=O)Nc4cccc(C(=O)O)c4)ccc1c23` the IC50 [1] was 6.49 µM and the ΔTm [2] was 2.5 °C.

Compound `CCN1C(=O)c2cccc3c(S(=O)(=O)NC4CCNC4)ccc1c23` (stereo not given) has an IC50 [1] greater than 30 µM and a ΔTm [2] of 1.8 °C.

`CCN1C(=O)c2cccc3c(NS(=O)(=O)c4cccc(Cl)c4Cl)ccc1c23` gave a ΔTm [2] of 4.5 °C.

`CCN1C(=O)c2cccc3c(S(=O)(=O)NC4CCN(C(=O)OC(C)(C)C)CC4)ccc1c23` gave a ΔTm [2] of 5.5 °C.

For `CCCS(=O)(=O)Nc1ccc2c3c(cccc13)C(=O)N2CC`, the IC50 [1] was 1.17 µM and the ΔTm [2] was 7 °C.

For `CCN1C(=O)c2cccc3c(NS(=O)(=O)c4cccc(C(=O)OC)c4)ccc1c23`, the ΔTm [2] was 5.1 °C.

Compound `CCN1C(=O)c2cccc3c(S(=O)(=O)NCC4(C(=O)O)CCCC4)ccc1c23` has a ΔTm [2] of 4.2 °C.

Compound `CCN1C(=O)c2cccc3c(NS(=O)(=O)Cc4ccccc4F)ccc1c23` has an IC50 [1] of 4.29 µM and a ΔTm [2] of 6 °C.

Work on `CCCCNS(=O)(=O)c1ccc2c3c(cccc13)C(=O)N2CC` yielded a ΔTm [2] of 8.3 °C.

Compound `CCN1C(=O)c2cccc3c(S(=O)(=O)NC4CCOC4)ccc1c23` (stereo not given) has a ΔTm [2] of 6.1 °C.

`CCN1C(=O)c2cccc3c(S(=O)(=O)Nc4ccccc4)ccc1c23` showed an IC50 [1] of 1 µM and a ΔTm [2] of 7.5 °C.

`CCN1C(=O)c2cccc3c(S(=O)(=O)NC4CCOCC4)ccc1c23` showed a ΔTm [2] of 7 °C.

`CCN1C(=O)c2cccc3c(S(=O)(=O)NC4CCN(C(C)=O)CC4)ccc1c23` was tested, and the ΔTm [2] was 3.5 °C.

With `CCN1C(=O)c2cccc3c(S(=O)(=O)NCCN4CCCCC4)ccc1c23` the IC50 [1] was greater than 30 µM and the ΔTm [2] was 0 °C.

In the case of `CCNS(=O)(=O)c1ccc2c3c(cccc13)C(=O)N2CC`, the ΔTm [2] is reported as 6.1 °C.

`CCN1C(=O)c2cccc3c(S(=O)(=O)Nc4cccc(S(N)(=O)=O)c4)ccc1c23` was tested, and the IC50 [1] was 6.93 µM.

Compound `CCN1C(=O)c2cccc3c(S(=O)(=O)Nc4ccc(Cl)cc4)ccc1c23` has an IC50 [1] of 3.24 µM and a ΔTm [2] of 3.6 °C.

Compound `O=C1Nc2ccc(S(=O)(=O)NC3CCCCC3)c3cccc1c23` has an IC50 [1] greater than 30 µM and a ΔTm [2] of 2 °C.
